Test results reported in patent US11066421B1, “Synthetic cinchona alkaloids against cancer” (Ares Pharmaceuticals, LLC, priority 2021, dated 2021).

Columns and labels:
[1] = system: M24-MET human melanoma cells; assay: CB.17 SCID mouse xenograft model of human malignant melanoma; type: in vivo; conditions: 5 mg/kg i.p. twice daily, 5 days on 2 days off
Description: (§1) Cell Lines. Human melanoma cell line M24-MET (ATCC CRL-12270) was obtained from American Type Culture Collection (Rockville, Md.) and maintained as a continuous cell line in DMEM supplemented with 10% fetal calf serum (FCS), 4 mm glutamine, 100 units/ml penicillin G, and […] streptomycin sulfate. All of the tissue culture reagents were obtained from Life Technologies, Inc. Inc. (Gaithersburg, Md.).
Mice. Female CB.17 SCID mice were obtained from Taconic (Germantown, N.Y.) and housed in a specific-pathogen-free room located in a secure indoor facility with controlled temperature, humidity, and noise levels. Mice were housed in micro-isolator cages and fed with autoclaved rodent chow. Water was also autoclaved and supplemented with trimethoprim/sulfamethoxazol 3 days a week. […]
SCID Mouse Model of Human Malignant Melanoma. […] The size of subcutaneous tumors were measured on day 14 and day 16 to evaluate the ability of AP-1 to inhibit tumor growth in this SCID mouse xenograft model of melanoma. Tumor volumes were calculated using the formula for the volume of a prolate spheroid, V=4/3×3.14×length/2×width/2×depth/2.

[2] = system: U87 human GBM cells; assay: CB.17 SCID mouse xenograft model of human glioblastoma multiforme; type: in vivo; conditions: 5 days per week for 4 weeks
Description: as §1, with “brain tumor” for “melanoma”, “U87” for “M24-MET”, “HTB-14)” for “CRL-12270)”
Mice. Female CB.17 SCID mice were obtained from Taconic (Germantown, N.Y.) and housed in a specific-pathogen-free room located in a secure indoor facility with controlled temperature, humidity, and noise levels. Mice were housed in micro-isolator cages and fed with autoclaved rodent chow. Water was also autoclaved and supplemented with trimethoprim/sulfomethoxazol 3 days a week. The animal protocol used in this study was approved by the local Institutional Animal Care and Use Committee (IACUC), and all of the animal care procedures conformed to the Guide for the Care and Use of Laboratory Animals (National Research Council, National Academy Press, Washington D.C. 1996).
SCID Mouse Xenograft Model of Human Glioblastoma Multiforme (GBM). The predictive value of the mouse xenograft models for clinical effectiveness of anti-cancer drugs has been confirmed for several drugs (Richmond A, Su. Y. Mouse xenograft models vs GEM models for human cancer therapeutics. Dis Model Mech. 2008; 1(2-3):78-82. doi:10.1242/dmm.000976). CB.17 SCID mice (8 wk. old, female) were inoculated subcutaneously with 1×10^6 U87 human GBM cells (1×10^6/inoculum, volume: 200 μL) in the right hind leg, as described (R. K. Narla et al., 2001, Clin Cancer Res. 7:2124-33). Mice were treated daily with intraperitoneal injections of vehicle (50 μL DMSO) or AP-1 (125 μg˜5 mg/kg/day in 50 μL DMSO) according to a 5 days on 2 days off schedule for 4 consecutive weeks. Tumor growth was determined by the measurement of visible tumors with a caliper in three dimensions three days a week and expressed as tumor volume in cubic millimeters (mm^3). Tumor volumes were calculated using the formula for the volume of a prolate spheroid, V=4/3×3.14×length/2×width/2×depth/2.

SMILES: C=CC1CN2CCC1CC2C(Oc1cc(OC(c2ccnc3ccccc23)C2CC3CCN2CC3C=C)nc(OC(c2ccnc3ccccc23)C2CC3CCN2CC3C=C)n1)c1ccnc2ccccc12 (stereo not drawn) [AP-1, 2,4,6-Tri(9-O-cinchoninyl)pyrimidine]
- tumor progression [1]: significantly slowed down the tumor progression
- average tumor volume ([1]; day 16, from day 7): 484.3±76.5 mm3
- tumor progression ([2]; 5 mg/kg/dose i.p. daily): significantly slowed down the tumor progression
- average tumor size ([2]; day 15, 5 mg/kg/day i.p.): 4.1±1.1 mm^3
- average tumor size ([2]; day 30, 5 mg/kg/day i.p.): 37.8±16.2 mm^3
- tumor size ([2]; day 44, 5 mg/kg/day i.p.): 956.0±291.3 mm^3
